Results: article PMC8284461, “Piperidine-4-Carboxamides Target DNA Gyrase in Mycobacterium abscessus” (Antimicrobial Agents and Chemotherapy, 2021)
In brackets after ≈: the same amount, converted by molar mass.

How the values were obtained:
[1] = system: M. abscessus subsp. abscessus ATCC 19977 MXF^r-2 (GyrA D96N); assay: MIC, resistant mutant; assay type: cell-based, Mycobacterium abscessus; conditions: Mycobacteroides abscessus, ATCC19977
[2] = Mouse liver microsome stability; assay type: in vitro ADME
Experimental: Kinetic solubility, parallel artificial membrane permeability assay (PAMPA) permeability, and stability in the mouse liver microsome assay were performed by BioDuro (Shanghai, China) according to standard protocols.

COc1ccc2nccc(NC(=O)C3CCN(CCc4ccc(C(F)(F)F)cc4)CC3)c2n1 [844-TFM]
MIC [1]: 2 µM (≈ 0.917 µg/mL)
CLint scaled ([2]; liver microsomes, mouse hepatic microsomes, scaled): 1050 mL/min/kg
microsomal CLint ([2]; liver microsomes, mouse hepatic microsomes, read-out: In vitro CLint): 267 µL/min/mg
t1/2 ([2]; mouse hepatic microsomes, in vitro): 5.2 min
CLhepatic ([2]; mouse hepatic microsomes, scaled): 82.9 mL/min/kg
half-life ([2]; mouse, liver microsomes, mouse hepatic microsomes, in vitro): 5 min
predicted extraction ratio ([2]; mouse, clearance vs hepatic blood flow of 90 ml/min/kg): ~1
